Data taken from the CheMixHub viscosity set.
“And” between values parts separate entries of the source, which are not always exact repeats. Equal values may be shown once.

Assay: xn = mol fraction of the nth substance listed

C1COCCO1 + O
Settings	viscosity
303.15 K, 101.3 kPa, x2 = 0.2053	1.163 mPa·s
303.15 K, 101.3 kPa, x2 = 0.3758	1.322 mPa·s and 1.321 mPa·s
303.15 K, 101.3 kPa, x2 = 0.7952	1.738 mPa·s
303.15 K, 101.3 kPa, x2 = 0.8661	1.58 mPa·s and 1.579 mPa·s
303.15 K, 101.3 kPa, x2 = 0.9391	1.221 mPa·s
303.15 K, 101.3 kPa, x2 = 0.9742	0.9855 mPa·s and 0.9853 mPa·s
303.15 K, 101.33 kPa, x1 = 0.0222	0.959 mPa·s
303.15 K, 101.33 kPa, x1 = 0.0486	1.137 mPa·s
303.15 K, 101.33 kPa, x1 = 0.0806	1.332 mPa·s
303.15 K, 101.33 kPa, x1 = 0.12	1.521 mPa·s
303.15 K, 101.33 kPa, x1 = 0.143	1.608 mPa·s
303.15 K, 101.33 kPa, x1 = 0.17	1.674 mPa·s
303.15 K, 101.33 kPa, x1 = 0.2	1.726 mPa·s
303.15 K, 101.33 kPa, x1 = 0.235	1.75 mPa·s
303.15 K, 101.33 kPa, x1 = 0.25	1.749 mPa·s
303.15 K, 101.33 kPa, x1 = 0.275	1.74 mPa·s
303.15 K, 101.33 kPa, x1 = 0.323	1.704 mPa·s
303.15 K, 101.33 kPa, x1 = 0.334	1.685 mPa·s
303.15 K, 101.33 kPa, x1 = 0.38	1.634 mPa·s
303.15 K, 101.33 kPa, x1 = 0.45	1.538 mPa·s
303.15 K, 101.33 kPa, x1 = 0.5	1.46 mPa·s
303.15 K, 101.33 kPa, x1 = 0.537	1.417 mPa·s
303.15 K, 101.33 kPa, x1 = 0.648	1.282 mPa·s
303.15 K, 101.33 kPa, x1 = 0.716	1.215 mPa·s
303.15 K, 101.33 kPa, x1 = 0.795	1.153 mPa·s
303.15 K, 101.33 kPa, x1 = 0.846	1.125 mPa·s
303.15 K, 101.33 kPa, x1 = 0.918	1.098 mPa·s
308.15 K, 101.33 kPa, x1 = 0.0222	0.859 mPa·s
308.15 K, 101.33 kPa, x1 = 0.0486	1.014 mPa·s
308.15 K, 101.33 kPa, x1 = 0.0806	1.184 mPa·s
308.15 K, 101.33 kPa, x1 = 0.12	1.349 mPa·s
308.15 K, 101.33 kPa, x1 = 0.143	1.419 mPa·s
308.15 K, 101.33 kPa, x1 = 0.17	1.479 mPa·s
308.15 K, 101.33 kPa, x1 = 0.2	1.525 mPa·s
308.15 K, 101.33 kPa, x1 = 0.235	1.549 mPa·s
308.15 K, 101.33 kPa, x1 = 0.25	1.553 mPa·s
308.15 K, 101.33 kPa, x1 = 0.275	1.546 mPa·s
308.15 K, 101.33 kPa, x1 = 0.323	1.518 mPa·s
308.15 K, 101.33 kPa, x1 = 0.334	1.503 mPa·s
308.15 K, 101.33 kPa, x1 = 0.38	1.46 mPa·s
308.15 K, 101.33 kPa, x1 = 0.45	1.38 mPa·s
308.15 K, 101.33 kPa, x1 = 0.5	1.317 mPa·s
308.15 K, 101.33 kPa, x1 = 0.537	1.282 mPa·s
308.15 K, 101.33 kPa, x1 = 0.648	1.17 mPa·s
308.15 K, 101.33 kPa, x1 = 0.716	1.112 mPa·s
308.15 K, 101.33 kPa, x1 = 0.795	1.06 mPa·s
308.15 K, 101.33 kPa, x1 = 0.846	1.036 mPa·s
308.15 K, 101.33 kPa, x1 = 0.918	1.017 mPa·s
313.1 K, 101 kPa, x2 = 0.228	0.97 mPa·s
313.1 K, 101 kPa, x2 = 0.2741	0.989 mPa·s
313.1 K, 101 kPa, x2 = 0.4187	1.047 mPa·s
313.1 K, 101 kPa, x2 = 0.7038	1.368 mPa·s
313.1 K, 101 kPa, x2 = 0.8099	1.376 mPa·s
313.1 K, 101 kPa, x2 = 0.8346	1.32 mPa·s
313.1 K, 101 kPa, x2 = 0.8791	1.229 mPa·s
313.1 K, 101 kPa, x2 = 0.9194	1.083 mPa·s
313.1 K, 101 kPa, x2 = 0.9508	0.937 mPa·s
313.1 K, 101 kPa, x2 = 0.9786	0.786 mPa·s
313.15 K, 101.3 kPa, x2 = 0.0459	0.9391 mPa·s
313.15 K, 101.3 kPa, x2 = 0.09407	0.9443 mPa·s
313.15 K, 101.3 kPa, x2 = 0.2053	0.9839 mPa·s
313.15 K, 101.3 kPa, x2 = 0.3758	1.1 mPa·s
313.15 K, 101.3 kPa, x2 = 0.7952	1.377 mPa·s
313.15 K, 101.33 kPa, x1 = 0.0222	0.776 mPa·s
313.15 K, 101.33 kPa, x1 = 0.0486	0.914 mPa·s
313.15 K, 101.33 kPa, x1 = 0.0806	1.061 mPa·s
313.15 K, 101.33 kPa, x1 = 0.12	1.199 mPa·s
313.15 K, 101.33 kPa, x1 = 0.143	1.265 mPa·s
313.15 K, 101.33 kPa, x1 = 0.17	1.322 mPa·s
313.15 K, 101.33 kPa, x1 = 0.2	1.365 mPa·s
313.15 K, 101.33 kPa, x1 = 0.235	1.386 mPa·s
313.15 K, 101.33 kPa, x1 = 0.25	1.383 mPa·s
313.15 K, 101.33 kPa, x1 = 0.275	1.384 mPa·s
313.15 K, 101.33 kPa, x1 = 0.323	1.366 mPa·s
313.15 K, 101.33 kPa, x1 = 0.334	1.352 mPa·s
313.15 K, 101.33 kPa, x1 = 0.38	1.316 mPa·s
313.15 K, 101.33 kPa, x1 = 0.45	1.249 mPa·s
323.1 K, 101 kPa, x2 = 0.228	0.836 mPa·s
323.1 K, 101 kPa, x2 = 0.2741	0.85 mPa·s
323.1 K, 101 kPa, x2 = 0.4187	0.888 mPa·s
323.1 K, 101 kPa, x2 = 0.591	1.063 mPa·s
323.1 K, 101 kPa, x2 = 0.7038	1.123 mPa·s
323.1 K, 101 kPa, x2 = 0.8099	1.122 mPa·s
323.1 K, 101 kPa, x2 = 0.8346	1.078 mPa·s
323.1 K, 101 kPa, x2 = 0.8791	1.006 mPa·s
323.1 K, 101 kPa, x2 = 0.9194	0.889 mPa·s
323.1 K, 101 kPa, x2 = 0.9508	0.774 mPa·s
323.1 K, 101 kPa, x2 = 0.9786	0.652 mPa·s
